# Source: US10780069B2, “Use of GC-1 in transplant related population” (University of Pittsburgh—Of the Commonwealth System of …, priority 2017, dated 2020)
# Legend:
# [1] = system: hepatocytes; assay: Partial hepatectomy after pretreatment with T3 or GC-1 supplemented diet; assay type: in vivo, mice
# Experimental: (§1) To label dividing hepatocytes, BrdU (5-bromodeoxyuridine) dissolved in drinking water (1 mg/ml) was given to all animals throughout the experiment period. The animals were given food and water ad libitum with a 12-hour light/dark daily cycle.
# After 7 days of receiving T3 supplemented diet (n=3) or GC-1 diet (n=3) or standard basal mouse chow (n=3), C57BL/6 male mice underwent partial hepatectomy as described previously (Tan et al. (2006) Gastroenterology 131, 1561-1572). Anesthesia was provided with inhaled Isoflurane. The animals were sacrificed 24 hours post hepatectomy, after Isoflurane anesthesia and cervical dislocation. Serum and liver tissue were harvested for further processing.
# (§2) Four micron liver sections were analyzed by immunohistochemistry for β-Catenin (BD Biosciences, San Jose, Calif.), Cyclin-D1 (Thermo-Scientific, Fremont, Calif.) and PCNA (Santa Cruz Biotechnology, Dallas, Tex.). Briefly, formalin-fixed sections were deparaffinized in graded xylene and alcohol. Endogenous peroxidase was inactivated using 3% hydrogen peroxide (Sigma). For β-Catenin, Cyclin-D1 staining, slides were microwaved in Citrate buffer followed by blocking with Superblock for 10 minutes. Sections were then incubated with secondary anti-mouse (for β-catenin) or anti-rabbit (for Cyclin-D1) horseradish peroxidase-conjugated antibody for 30 minutes.
# (§3) Bromodeoxyuridine (BrdU) was stained with mouse antibody (Becton Dickinson) as previously described (Fanti et al. (2014) Hepatology 59, 2309-2320). Briefly, tissue sections were deparaffinized, exposed to 0.3% hydrogen peroxide in deionized water for 10 minutes to block endogenous peroxidase, treated with 2N HCl, incubated with trypsin 0.1% for 20 minutes and then with normal goat serum for 20 minutes at room temperature. Sections were then incubated overnight in cold room with anti-BrdU monoclonal antibody, followed by biotinylated goat anti-mouse IgG. DAB kit was then applied, and sections were counterstained with hematoxylin. A small segment of intestine was included from each mouse as a positive control for the staining. For quantification of BrdU staining, at least 10 high power fields (400× or 600×) fields each from at least three biological replicates were counted as indicated in the figures. Statistical analysis was performed as described below.
# [2] = Serum ALT/bilirubin and hepatic histology after GC-1 or T3; assay type: in vivo, mice; details: T3 (4 mg/Kg of diet) or GC-1 (5 mg/Kg of diet) chow 8 days, vs basal diet
# Experimental: (§4) All studies on mice were performed in strict accordance with Guidelines. Eight-week old male C57BL/6 male mice (Jackson/Charles River) were maintained on a standard laboratory basal diet (Test Diet) (n=4), or fed a T3-supplemented diet (4 mg/Kg of diet, Sigma Chemicals, St. Louis Mo.) (n=4). GC-1 was administered to the eight week-old male C57BL/6 male mice either via GC-1-supplemented diet (5 mg/Kg of diet, Medchem Express) for 8 days (n=4) or via daily intraperitoneal injections (IP) of GC-1 dissolved in DMSO (0.3 mg/kg/dose) for 8 days (n=7). As a control group for injections, DMSO alone was injected daily intraperitoneal (IP) for 8 days (n=5). Mice were sacrificed 24 hours after the last injection.
# [3] = system: hepatocytes; assay: T3- or GC-1-supplemented diet in wild type mice: hepatocyte proliferation; assay type: in vivo
# Experimental: as §4, §1, §2, §3
# [4] = system: liver regeneration; details: rats; Columbano et al. (2008); cited from earlier work
# [5] = system: hepatocytes; assay: T3 or GC-1 in LRP5-6 LKO mice and littermate controls; assay type: in vivo
# Experimental: Eight to 10 week-old LRP5-6-LKO were obtained from breeding homozygous LRP5-6 double floxed mice with albumin-cre transgenic mice as described previously (Yang et al. (2014) Hepatology 60, 964-976). LRP5-6-LKO or sex matched littermate controls were given either T3-supplemented diet (n=4), basal diet (n=3), IP GC-1 (n=3) or IP DMSO (n=3). Mice were sacrificed at 24 hours after the last IP injection.
# To label dividing hepatocytes, BrdU (5-bromodeoxyuridine) dissolved in drinking water (1 mg/ml) was given to all animals throughout the experiment period. The animals were given food and water ad libitum with a 12-hour light/dark daily cycle. […]
# (§5) Protein extraction from frozen liver tissue and western blot analysis were performed as previously described (Fanti et al., (2014) Hepatology 59, 2309-2320). For protein extraction, a small amount of frozen liver tissue was obtained (over dry ice) and was homogenized using RIPA buffer with protease and phosphatase inhibitor cocktail (Sigma, St. Louis, Mo.). Samples were transferred to a 1.5 ml tube on ice, and spun in cold room centrifuge at 14,000 RPM for 5 minutes. Pellet was then discarded and sample was aliquoted and stored at −80 C for use. Fifty micrograms of the proteins were resolved by sodium dodecyl sulfate-polyacrylamide gel electrophoresis analysis, and transferred to immobilon-polyvinylidene difluoride membranes.
# The primary antibodies used were against β-catenin (BD Biosciences); pSer675-β-catenin, pSer552-β-catenin, Active-β-catenin (Cell-Signaling), Cyclin-D1 (Thermo-Scientific), and β-Actin (Sigma). Dilutions of primary antibody were done according to manufacturer recommendations (1:1000 for all except Cyclin-D1 which was 1:200). Horseradish peroxidase-conjugated secondary antibodies used were goat anti-mouse (1:20,000) and goat anti-rabbit (1:10,000) (Millipore). The proteins were detected by Super-Signal West Pico Chemiluminescense Substrate (Thermo Scientific, Rockford Ill.) and visualized by autoradiography. […]
# [6] = system: hepatocytes; assay: GC-1 or T3 in hepatocyte specific β-catenin knockout mice (β-Cat LKO) and littermate controls; assay type: in vivo
# Experimental: Eight to 10 week old male hepatocyte specific β-catenin knockout mice (β-cat-LKO) or sex-matched littermate controls obtained from breeding homozygous floxed β-catenin mice and albumin-cre transgenic mice (as described elsewhere (Tan et al., (2006) Gastroenterology 131, 1561-1572)) were given 8 daily IP injections of GC-1 (n=4) or DMSO (n=4) and harvested around 24 hours after the last injection.
# as §1, §2, §3, §5
# The primary antibodies used were against β-catenin (BD Biosciences); pSer675-β-catenin, pSer552-β-catenin, Active-β-catenin (Cell-Signaling), Cyclin-D1 (Thermo-Scientific), and β-Actin (Sigma). Dilutions of primary antibody were done according to manufacturer recommendations (1:1000 for all except Cyclin-D1 which was 1:200). Horseradish peroxidase-conjugated secondary antibodies used were goat anti-mouse (1:20,000) and goat anti-rabbit (1:10,000) (Millipore). The proteins were detected by Super-Signal West Pico Chemiluminescense Substrate (Thermo Scientific, Rockford Ill.) and visualized by autoradiography.
# Total RNA was extracted by homogenizing frozen liver tissues in Trizol reagent (Invitrogen, Carlsbad, Calif.) from GC-1-injected β-Cat LKO (n=4) and littermate control mice (n=4); and GC-1-injected LRP5-6 LKO (n=3) and littermate control mice (n=3). […]
# [7] = system: preneoplastic hepatocytes; details: resistant-hepatocyte model of hepatocarcinogenesis (T3, rats); Ledda-Columbano 2000, Perra 2009; cited from earlier work
structure (smiles),measurement,setting,value
"N[C@@H](Cc1cc(I)c(Oc2ccc(O)c(I)c2)c(I)c1)C(=O)O [T3, Triiodothyronine]",nuclear cyclin-D1 immunohistochemistry at 24 hours after hepatectomy,[1]; 24 hours after hepatectomy,panlobular distribution
same,"hepatocyte proliferative response post hepatectomy, T3 versus GC-1",[1]; 24 hours post hepatectomy,significantly greater hepatocyte proliferative response than GC-1
same,BrdU positive hepatocyte nuclei at 24 hours after hepatectomy,"[1]; diet pretreatment, vs basal diet",pronounced increase
same,increase in hepatocyte proliferation over the 24-hour liver regeneration period,"[1]; pre-hepatectomy vs 24 hour-post hepatectomy, same animals, all three mice",around 2 fold
same,cyclin-D1 immunohistochemistry in resected lobes at time of hepatectomy,[1]; pretreatment livers,expansion of cyclin-D1 positive hepatocytes in the midzonal area
same,BrdU-positive hepatocytes in resected lobes at time of hepatectomy,"[1]; seven-day pretreatment, vs basal diet",increased BrdU-positive hepatocytes
same,histological changes in the livers,[2],no histological changes
same,BrdU incorporation,"[3]; T3 (4 mg/Kg of diet) or GC-1 (5 mg/Kg of diet) chow 8 days, vs basal diet",increased BrdU incorporation
same,cyclin-D1 staining in hepatocytes,"[3]; T3 diet or IP GC-1, 8 days, vs respective controls",notably increased cyclin-D1 staining
same,cyclin-D1 staining in hepatocytes,"[3]; T3 or GC-1 supplemented diet 8 days, vs basal diet",increased in both groups
same,"BrdU-positive hepatocytes, T3 diet versus IP GC-1","[3]; T3 supplemented diet versus IP GC-1, 8 days, p<0.001 between groups",highest proliferation
same,liver regeneration after partial hepatectomy,[4],regenerative advantage
same,survival in a 90% hepatectomy model,[4],survival advantage
same,"pSer675-β-catenin levels, Western blot",[5]; LRP5-6-LKO and littermate controls,comparable or even greater levels
same,"pSer552-β-catenin levels, Western blot",[5]; LRP5-6 LKO,modest increase
same,active β-catenin levels,[5]; LRP5-6 LKO after T3 or GC-1 feeding vs basal diet,no notable differences
same,cyclin-D1 protein and mRNA expression,[5]; LRP5-6 LKO vs controls,decreased
same,numbers of cyclin-D1-positive hepatocytes (immunohistochemistry),[5]; LRP5-6 LKO vs controls,notably decreased
same,total β-catenin levels,[5]; LRP5-6 LKO vs controls,comparable levels
same,number of BrdU-labeled hepatocyte nuclei,"[5]; LRP5-6 LKO vs controls, T3 diet 4 mg/Kg of diet or GC-1 0.3 mg/Kg/dose IP 8 days",notable decrease
same,active β-catenin levels in liver lysates,[5]; control mice fed T3 or GC-1 diet for 8 days vs basal diet,dramatic increase
same,"active β-catenin, Western blot",[6]; β-Cat LKO after T3 or GC-1 treatment,very faint signal
same,"P-Ser675-β-catenin, Western blot",[6]; β-Cat LKO vs controls treated with GC-1 or T3,absent
same,effect on preneoplastic lesions / carcinogenic process,[7],accelerate remodeling of chemically-induced preneoplastic lesions
